Data reported in PMC11077868, “Rutinosides-derived from Sarocladium strictum 6-O-α-rhamnosyl-β-glucosidase show enhanced anti-tumoral activity in pancreatic cancer cells” (Microbial Cell Factories, 2024).

Tests used:
[1] = test system: T1, 6-O-α-rhamnosyl-β-glucosidase (αRβG); assay: hydrolysis; reducing sugars by […],4-dinitrosalicylic acid, Michaelis-Menten fit; assay type: biochemical, Sarocladium strictum; details: 50 mM sodium phosphate pH 6.0, 60 °C, 1 h
T1 construct: native, purified from culture supernatant of S. strictum; 99 kDa by SDS-PAGE; tryptic peptide TIHETYLAPWYDGVK matched to a 755-residue putative glycoside hydrolase (21-residue signal peptide) of another strain, A. strictum DS1bioAY4a, JGI ID 1029425

[2] = test system: T1, 6-O-α-rhamnosyl-β-glucosidase (αRβG); assay: hydrolysis; product release, Michaelis-Menten fit; assay type: biochemical, Sarocladium strictum; details: 50 mM sodium phosphate pH 6.0, 60 °C, 1 h

Km [1] | Km [2] | SMILES
700 ± 120 µM |  | COc1ccc([C@@H]2CC(=O)c3c(O)cc(O[C@@H]4O[C@H](CO[C@@H]5O[C@@H](C)[C@H](O)[C@@H](O)[C@H]5O)[C@@H](O)[C@H](O)[C@H]4O)cc3O2)cc1O [hesperidin]
 | 473 ± 4 µM | C[C@@H]1O[C@@H](OC[C@H]2O[C@@H](Oc3c(-c4ccc(O)c(O)c4)oc4cc(O)cc(O)c4c3=O)[C@H](O)[C@@H](O)[C@@H]2O)[C@H](O)[C@H](O)[C@H]1O [rutin]
